Measurements: article PMC9168271, “Discovery of Novel Tetrahydro-β-carboline Containing Aminopeptidase N Inhibitors as Cancer Chemosensitizers” (Frontiers in Oncology, 2022)
Read-outs that look alike come from different tables or passages of the source.

Molecular target: Aminopeptidase N (APN, CD13) (Homo sapiens, UniProt P15144)
Test: APN enzyme inhibitory assay, supernatant of K562-CD13 cells as enzyme source, L-leucine-p-nitro anilide substrate;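 further: substrate L-leucine-p-nitro anilide used at 1.6 mM, with enzyme from sonicated APN-overexpressing K562 cell lysate supernatant, run in 96-well plates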
Conditions: for inhibition at 30 µM: read-out: Inhibitory rate (%)
Protocol: In the enzyme inhibitory assay, K562-CD13 monoclonal cells were used as APN enzyme source as described in our previous work ([27]).
K562 cells with overexpression of APN were added into PBS for ultrasonic crushing, centrifuged for 10 minutes, and supernatant was taken as enzyme source and added into 96-well plate. Different concentrations of compounds were added subsequently, and 1.6 mM L-leucine-p-nitro anilide was used as substrate. After 30 minutes of reaction, the APN enzyme activity was measured at 405 nm absorbance. The inhibition rate of APN activity was analyzed by the formula (Od control OD tested)/Od control 100%.

Sequence of Aminopeptidase N (APN, CD13) (P15144 whole entry): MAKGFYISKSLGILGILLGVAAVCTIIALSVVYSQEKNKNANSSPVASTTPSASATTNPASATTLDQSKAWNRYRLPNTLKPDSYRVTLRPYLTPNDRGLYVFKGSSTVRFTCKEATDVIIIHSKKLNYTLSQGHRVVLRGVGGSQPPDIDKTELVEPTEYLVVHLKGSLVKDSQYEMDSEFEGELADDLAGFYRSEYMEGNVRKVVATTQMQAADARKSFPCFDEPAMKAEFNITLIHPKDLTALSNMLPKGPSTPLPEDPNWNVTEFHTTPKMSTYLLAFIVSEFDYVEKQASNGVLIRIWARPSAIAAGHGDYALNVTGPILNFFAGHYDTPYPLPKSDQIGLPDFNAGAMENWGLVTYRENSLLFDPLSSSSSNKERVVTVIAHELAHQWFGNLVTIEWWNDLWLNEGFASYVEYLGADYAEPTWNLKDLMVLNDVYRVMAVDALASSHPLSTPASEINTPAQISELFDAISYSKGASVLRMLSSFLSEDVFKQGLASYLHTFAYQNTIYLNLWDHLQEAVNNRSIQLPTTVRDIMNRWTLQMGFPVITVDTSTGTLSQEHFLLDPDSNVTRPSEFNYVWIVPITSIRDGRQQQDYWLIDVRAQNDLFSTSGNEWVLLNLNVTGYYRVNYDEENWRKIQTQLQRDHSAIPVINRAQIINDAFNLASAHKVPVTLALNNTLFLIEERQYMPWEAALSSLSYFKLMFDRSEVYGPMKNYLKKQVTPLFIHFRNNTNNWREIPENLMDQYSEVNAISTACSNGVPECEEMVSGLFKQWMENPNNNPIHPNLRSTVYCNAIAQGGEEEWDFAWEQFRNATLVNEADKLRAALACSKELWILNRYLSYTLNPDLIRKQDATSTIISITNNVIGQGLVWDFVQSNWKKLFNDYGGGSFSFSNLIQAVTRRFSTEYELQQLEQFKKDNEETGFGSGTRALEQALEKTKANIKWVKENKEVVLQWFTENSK

SMILES	inhibition at 30 µM [%]	other results
COc1ccc(C(=O)N2CCc3c(n(Cc4ccc(C(=O)NO)cc4)c4ccccc34)C2)cc1 [Compound D9, N-hydroxy-4-((2-(4-methoxybenzoyl)-1,2,3,4-tetrahydro-9H-pyrido[3,4-b]indol-9-yl)methyl)benzamide]	24 ± 0.25	
O=C(NO)c1ccc(Cn2c3c(c4ccccc42)CCN(C(=O)c2ccccc2F)C3)cc1 [Compound D15, 4-((2-(2-fluorobenzoyl)-1,2,3,4-tetrahydro-9H-pyrido[3,4-b]indol-9-yl)methyl)-N-hydroxybenzamide]	28.7 ± 2.75	
COc1ccccc1C(=O)N1CCc2c(n(CC(=O)NO)c3ccccc23)C1 [Compound D8, N-hydroxy-2-(2-(2-methoxybenzoyl)-1,2,3,4-tetrahydro-9H-pyrido[3,4-b]indol-9-yl) acetamide]		Inhibitory rate (%) (compound at 30 µM, mean of at least three experiments): 56.7±0.42%; IC50 (mean of at least three experiments): 25 ± 3.32 µM
O=C(NO)c1ccc(Cn2c3c(c4ccccc42)CCN(C(=O)c2ccc(C(F)(F)F)cc2)C3)cc1 [Compound D2, N-hydroxy-4-((2-(4-(trifluoromethyl)benzoyl)-1,2,3,4-tetrahydro-9H-pyrido[3,4-b]indol-9-yl)methyl)benzamide]	13.3 ± 3.25	
O=C(Cn1c2c(c3ccccc31)CCN(C(=O)c1ccc(F)cc1)C2)NO [Compound D10, 2-(2-(4-fluorobenzoyl)-1,2,3,4-tetrahydro-9H-pyrido[3,4-b]indol-9-yl)-N-hydroxyacetamide]	42.5 ± 1.42	
O=C(Cn1c2c(c3ccccc31)CCN(C(=O)c1ccccc1C(F)(F)F)C2)NO [Compound D5, N-hydroxy-2-(2-(2-(trifluoromethyl)benzoyl)-1,2,3,4-tetrahydro-9H-pyrido[3,4-b]indol-9-yl)acetamide]	62.9 ± 8.72	IC50: 14.9 ± 1.03 µM
O=C(Cn1c2c(c3ccccc31)CCN(C(=O)c1ccccc1)C2)NO [Compound D3, 2-(2-benzoyl-1,2,3,4-tetrahydro-9H-pyrido[3,4-b]indol-9-yl)-N-hydroxyacetamide]	74.4 ± 6.42	IC50: 6.24 ± 0.43 µM
O=C(NO)c1ccc(Cn2c3c(c4ccccc42)CCN(C(=O)c2cccc(F)c2)C3)cc1 [Compound D13, 4-((2-(3-fluorobenzoyl)-1,2,3,4-tetrahydro-9H-pyrido[3,4-b]indol-9-yl)methyl)-N-hydroxybenzamide]	13.2 ± 0.4	
O=C(NO)c1ccc(Cn2c3c(c4ccccc42)CCN(C(=O)c2ccc(F)cc2)C3)cc1 [Compound D11, 4-((2-(4-fluorobenzoyl)-1,2,3,4-tetrahydro-9H-pyrido[3,4-b]indol-9-yl)methyl)-N-hydroxybenzamide]	35 ± 4.57	
O=C(NO)c1ccc(Cn2c3c(c4ccccc42)CCN(C(=O)c2ccccc2)C3)cc1 [Compound D4, 4-((2-benzoyl-1,2,3,4-tetrahydro-9H-pyrido[3,4-b]indol-9-yl)methyl)-N-hydroxybenzamide]	19.4 ± 4.53	
O=C(Cn1c2c(c3ccccc31)CCN(C(=O)c1ccc(C(F)(F)F)cc1)C2)NO [Compound D1, N-hydroxy-2-(2-(4-(trifluoromethyl)benzoyl)-1,2,3,4-tetrahydro-9H-pyrido[3,4-b]indol-9-yl)acetamide]	35 ± 1.51	
O=C(NO)c1ccc(Cn2c3c(c4ccccc42)CCN(C(=O)c2ccccc2C(F)(F)F)C3)cc1 [Compound D6, N-hydroxy-4-((2-(2-(trifluoromethyl)benzoyl)-1,2,3,4-tetrahydro-9H-pyrido[3,4-b]indol-9-yl)methyl)benzamide]	15.3 ± 3.66	
COc1ccccc1C(=O)N1CCc2c(n(Cc3ccc(C(=O)NO)cc3)c3ccccc23)C1 [Compound D7, N-hydroxy-4-((2-(2-methoxybenzoyl)-1,2,3,4-tetrahydro-9H-pyrido[3,4-b]indol-9-yl)methyl)benzamide]	17.9 ± 0.84	

Continued, in another order:

inhibition at 30 µM [%]	SMILES	other results
23.6 ± 4.51	Cc1ccccc1C(=O)N1CCc2c(n(Cc3ccc(C(=O)NO)cc3)c3ccccc23)C1 [Compound D17, N-hydroxy-4-((2-(2-methylbenzoyl)-1,2,3,4-tetrahydro-9H-pyrido[3,4-b]indol-9-yl)methyl)benzamide]	
19.2 ± 3.7	O=C(NO)c1ccc(Cn2c3c(c4ccccc42)CCN(C(=O)c2cccc(Br)c2)C3)cc1 [Compound D22, 4-((2-(3-bromobenzoyl)-1,2,3,4-tetrahydro-9H-pyrido[3,4-b]indol-9-yl)methyl)-N-hydroxybenzamide]	
71.3 ± 4.25	O=C(Cn1c2c(c3ccccc31)CCN(C(=O)c1cc(F)cc(F)c1)C2)NO [Compound D24, 2-(2-(3,5-difluorobenzoyl)-1,2,3,4-tetrahydro-9H-pyrido[3,4-b]indol-9-yl)-N-hydroxyacetamide]	IC50: 7.13 ± 0.13 µM
53.1 ± 7.31	CCCc1ccc(C(=O)N2CCc3c(n(CC(=O)NO)c4ccccc34)C2)cc1 [Compound D26, N-hydroxy-2-(2-(4-propylbenzoyl)-1,2,3,4-tetrahydro-9H-pyrido[3,4-b]indol-9-yl)acetamide]	
20.4 ± 5.78	CCCc1ccc(C(=O)N2CCc3c(n(Cc4ccc(C(=O)NO)cc4)c4ccccc34)C2)cc1 [Compound D27, N-hydroxy-4-((2-(4-propylbenzoyl)-1,2,3,4-tetrahydro-9H-pyrido[3,4-b]indol-9-yl)methyl)benzamide]	
78 ± 3.95	O=C(Cn1c2c(c3ccccc31)CCN(C(=O)c1cc(F)ccc1F)C2)NO [Compound D28, 2-(2-(2,5-difluorobenzoyl)-1,2,3,4-tetrahydro-9H-pyrido[3,4-b]indol-9-yl)-N-hydroxyacetamide]	IC50: 4.85 ± 0.55 µM
53.2 ± 2.08	CCc1ccc(C(=O)N2CCc3c(n(CC(=O)NO)c4ccccc34)C2)cc1 [Compound D18, 2-(2-(4-ethylbenzoyl)-1,2,3,4-tetrahydro-9H-pyrido[3,4-b]indol-9-yl)-N-hydroxyacetamide]	
27.9 ± 5.85	O=C(NO)c1ccc(Cn2c3c(c4ccccc42)CCN(C(=O)c2cc(F)cc(F)c2)C3)cc1 [Compound D25, 4-((2-(3,5-difluorobenzoyl)-1,2,3,4-tetrahydro-9H-pyrido[3,4-b]indol-9-yl)methyl)-N-hydroxybenzamide]	
19.5 ± 4.22	CCc1ccc(C(=O)N2CCc3c(n(Cc4ccc(C(=O)NO)cc4)c4ccccc34)C2)cc1 [Compound D19, 4-((2-(4-ethylbenzoyl)-1,2,3,4-tetrahydro-9H-pyrido[3,4-b]indol-9-yl)methyl)-N-hydroxybenzamide]	
78.2 ± 5.43	O=C(Cn1c2c(c3ccccc31)CCN(C(=O)c1cccc(Br)c1)C2)NO [Compound D21, 2-(2-(3-bromobenzoyl)-1,2,3,4-tetrahydro-9H-pyrido[3,4-b]indol-9-yl)-N-hydroxyacetamide]	IC50: 7.82 ± 1.05 µM
19.1 ± 4.17	O=C(NO)c1ccc(Cn2c3c(c4ccccc42)CCN(C(=O)c2ccccc2Cl)C3)cc1 [Compound D20, 4-((2-(2-chlorobenzoyl)-1,2,3,4-tetrahydro-9H-pyrido[3,4-b]indol-9-yl)methyl)-N-hydroxybenzamide]	
60 ± 4.95	O=C(Cn1c2c(c3ccccc31)CCN(C(=O)c1c(F)cccc1Cl)C2)NO [Compound D29, 2-(2-(2-chloro-6-fluorobenzoyl)-1,2,3,4-tetrahydro-9H-pyrido[3,4-b]indol-9-yl)-N-hydroxyacetamide]	IC50: 9.23 ± 0.67 µM
65 ± 5.97	O=C(NO)c1ccc(Cn2c3c(c4ccccc42)CCN(C(=O)c2ccc(F)cc2F)C3)cc1 [Compound D23, 4-((2-(2,4-difluorobenzoyl)-1,2,3,4-tetrahydro-9H-pyrido[3,4-b]indol-9-yl)methyl)-N-hydroxybenzamide]	
